From patent US20260365628A1, “SUBSTITUTED 3,4-DIHYDROQUINOLINONE INHIBITORS OF TSHR” (Septerna, Inc., priority 2022, published 2026) come the findings set out here.

The structures appear in SMILES notation. Bounds are passed on as bounds.

This assay deals with T1, hTSHR (Homo sapiens, UniProt P16473).
T1 construct: expressed in transfected cells
The assay is described as follows: hTSHR TR-FRET cAMP Assay (inhibition of M22-stimulated cAMP production). It is filed as cell-based. The following applies: Expi293F Inducible cells stably expressing hTSHR; cAMP HTRF; stimulated with EC80 of anti-TSHR antibody M22; 15 min compound preincubation, 30 min at 37° C.; read-out: Activity (IC50 bins). The procedure, abridged: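 Readout was a cAMP HTRF ratio of 655/620 nm after lysis, scaled between the EC80 M22 signal (0% inhibition) and no-agonist vehicle (100%). Frozen induced Expi293F-hTSHR cells saw test compounds (0.5% DMSO) for 15 min at 37 °C before 30 min of M22 stimulation at EC80.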

T1 sequence (P16473 21-764): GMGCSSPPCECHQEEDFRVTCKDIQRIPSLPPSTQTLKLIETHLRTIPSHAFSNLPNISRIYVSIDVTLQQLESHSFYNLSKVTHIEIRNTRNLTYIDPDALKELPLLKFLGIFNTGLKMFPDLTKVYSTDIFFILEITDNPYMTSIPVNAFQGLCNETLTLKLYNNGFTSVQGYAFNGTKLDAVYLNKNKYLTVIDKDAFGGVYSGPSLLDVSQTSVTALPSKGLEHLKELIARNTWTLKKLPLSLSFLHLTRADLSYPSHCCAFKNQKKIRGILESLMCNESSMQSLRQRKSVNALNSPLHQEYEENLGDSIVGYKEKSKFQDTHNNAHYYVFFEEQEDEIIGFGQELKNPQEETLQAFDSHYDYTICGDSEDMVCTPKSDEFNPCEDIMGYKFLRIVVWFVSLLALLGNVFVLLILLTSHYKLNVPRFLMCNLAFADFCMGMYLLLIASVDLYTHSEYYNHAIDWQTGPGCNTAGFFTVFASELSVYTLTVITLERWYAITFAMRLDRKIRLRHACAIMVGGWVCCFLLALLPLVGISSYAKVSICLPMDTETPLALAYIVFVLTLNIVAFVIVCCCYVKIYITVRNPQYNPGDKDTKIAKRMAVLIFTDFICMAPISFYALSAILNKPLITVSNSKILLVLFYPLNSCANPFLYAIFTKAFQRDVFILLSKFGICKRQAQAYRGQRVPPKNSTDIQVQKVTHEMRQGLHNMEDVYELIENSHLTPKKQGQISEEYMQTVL

With `CC(C)(C)NC(=O)Nc1ccc2c(c1)C[C@@H](CC#N)C(=O)N2Cc1ccccc1` [Example 276, (S)-1-(1-benzyl-3-(cyanomethyl)-2-oxo-1,2,3,4-tetrahydroquinolin-6-yl)-3-(tert-butyl)urea], the IC50 is more than 1000 nM.
As for `C[C@@H](c1cccc(OC(F)(F)F)c1)n1c(=O)cnc2cc(NC(=O)N[C@H]3C[C@H](C(F)(F)F)C3)ccc21` [Example 223, 1-(2-oxo-1-((S)-1-(3-(trifluoromethoxy)phenyl)ethyl)-1,2-dihydroquinoxalin-6-yl)-3-((1r,3R)-3-(trifluoromethyl)cyclobutyl)urea], the 50% inhibitory concentration (IC50) fell in the range of 100 to 1000 nM.
Next, `C[C@@H](c1cccc(CCN(C)C(=O)C(C)(C)O)c1)n1c(=O)cnc2cc(NC(=O)NC(C)(C)C)ccc21` [Example 120, (S)-N-(3-(1-(6-(3-(tert-butyl)ureido)-2-oxoquinoxalin-1 (2H)-yl)ethyl)phenethyl)-2-hydroxy-N,2-dimethylpropanamide]: more than 1000 nM.
Next, `C[C@H]1Oc2cc(NC(=O)NC3(C)CCCC3)ccc2N(Cc2cccc(OC(F)(F)F)n2)C1=O` [Example 321, (R)-1-(2-methyl-3-oxo-4-((6-(trifluoromethoxy)pyridin-2-yl)methyl)-3,4-dihydro-2H-benzo[b][1,4]oxazin-7-yl)-3-(1-methylcyclopentyl)urea]: less than 100 nM.
With `CC(C)(C)NC(=O)Nc1ccc2c(c1)ncc(=O)n2Cc1cccc(CCCC(F)(F)F)n1` [Example 95, 1-(tert-butyl)-3-(2-oxo-1-((6-(4,4,4-trifluoro-butyl)pyri-din-2-yl)methyl)-1,2-dihydro-quinoxalin-6-yl)urea] the figure was 100 to 1000 nM; with `C[C@@H](c1cc(Cl)ccc1F)n1c(=O)cnc2cc(NC(=O)NC(C)(C)C)c(C#N)cc21` [Example 364, 3-tert-butyl-1-{1-[(1S)-1-(5-chloro-2-fluorophenyl)ethyl]-7-cyano-2-oxoquinoxalin-6-yl}urea], 100 to 1000 nM; with `C[C@@H]1Oc2cc(NC(=O)NC(C)(C)C)ccc2N(Cc2cc(C(F)(F)F)ccc2C#N)C1=O` [Example 84, (S)-1-(tert-butyl)-3-(4-(2-cyano-5-(trifluoromethyl)benzyl)-2-methyl-3-oxo-3,4-dihydro-2H-benzo[b][1,4]oxazin-7-yl)urea], 100 to 1000 nM.
Turning to `C[C@@H](c1ccccc1)N1C(=O)CCc2nc(NC(=O)NC(C)(C)C)c(C(F)(F)F)cc21` [Example 377, (S)-1-(tert-butyl)-3-(6-oxo-5-(1-phenylethyl)-3-(trifluoromethyl)-5,6,7,8-tetrahydro-1,5-naphthyridin-2-yl)urea], the IC50 was less than 100 nM.
For `C[C@H]1Oc2cc(NC(=O)NC(C)(C)C)ccc2N(Cc2cccc(OC(F)F)c2)C1=O` [Example 160, (R)-1-(tert-butyl)-3-(4-(3-(difluoro-methoxy)benzyl)-2-methyl-3-oxo-3,4-dihydro-2H-benzo [b][1,4]oxazin-7-yl)urea], the IC50 was less than 100 nM.
With `C[C@H]1Oc2cc(NC(=O)NC3(C(F)(F)F)CCCC3)ccc2N([C@@H](C)c2ccccc2)C1=O` [Example 257, 1-((R)-2-methyl-3-oxo-4-((S)-1-phen-ylethyl)-3,4-dihydro-2H-benzo[b][1,4]oxazin-7-yl)-3-(1-(trifluoromethyl)-cyclopentyl)urea] the figure was less than 100 nM.
Next, `Cc1nc2cc(NC(=O)NC(C)(C)C)ccc2n(Cc2cccc(Cl)c2)c1=O` [Example 273, 3-tert-butyl-1-{1-[(3-chlorophenyl)methyl]-3-methyl-2-oxoquinoxalin-6-yl}urea]: 100 to 1000 nM.
Next, `C[C@H]1Oc2cc(NC(=O)NC(C)(C)C)c(C(F)(F)F)cc2N(Cc2ccccc2)C1=O` [Example 330, (R)-1-(4-benzyl-2-methyl-3-oxo-6-(trifluoromethyl)-3,4-dihydro-2H-benzo[b][1,4]oxazin-7-yl)-3-(tert-butyl)urea]: less than 100 nM.
As for `C[C@@H](c1cccc(OC(F)(F)F)c1)n1c(=O)cnc2cc(NC(=O)NC3CC(F)(F)C3)ccc21` [Example 204, (S)-1-(3,3-difluorocyclobutyl)-3-(2-oxo-1-(1-(3-(trifluoromethoxy)phenyl)ethyl)-1,2-dihydroquinoxalin-6-yl)urea], the IC50 was 100 to 1000 nM.
With `C[C@@H](c1cc(F)ccc1Cl)n1c(=O)cnc2cc(NC(=O)NC(C)(C)C)ccc21` [Example 147, (S)-1-(tert-butyl)-3-(1-(1-(2-chloro-5-fluorophenyl)ethyl)-2-oxo-1,2-dihydroquinoxalin-6-yl)urea] the figure was 100 to 1000 nM; with `C[C@@H](c1c(F)cccc1F)n1c(=O)cnc2cc(NC(=O)NC(C)(C)C)ccc21` [Example 140, (S)-1-(tert-butyl)-3-(1-(1-(2,6-difluorophenyl)ethyl)-2-oxo-1,2-dihydroquinoxalin-6-yl)urea], 100 to 1000 nM; with `C[C@@H](c1cccc(CCC(C)(C)O)c1)n1c(=O)cnc2cc(NC(=O)NC(C)(C)C)ccc21` [Example 116, (S)-1-(tert-butyl)-3-(1-(1-(3-(3-hydroxy-3-methylbutyl)phenyl)ethyl)-2-oxo-1,2-dihydroquinoxalin-6-yl)urea], more than 1000 nM.
Consider `Cc1cccc(CN2C(=O)CCc3cc(NC(=O)NC(C)(C)C)ccc32)c1C#N` [Example 53, 3-tert-butyl-1-{1-[(2-cyano-3-methylphenyl)methyl]-2-oxo-3,4-dihydroquinolin-6-yl}urea], for which the IC50 was in the range of 100 to 1000 nM.
`CC1CC(=O)N(Cc2ccccc2)c2ccc(NC(=O)NC(C)(C)C)cc21` (stereo not drawn) [Example 15, 1-(1-benzyl-4-methyl-2-oxo-1,2,3,4-tetrahydroquinolin-6-yl)-3-(tert-butyl)urea]: the concentration for half-maximal inhibition (IC50) was more than 1000 nM.
Next, `C[C@@H](c1cccc(C#CC(C)(C)O)c1)n1c(=O)cnc2cc(NC(=O)NC(C)(C)C)ccc21` [Example 113, (S)-1-(tert-butyl)-3-(1-(1-(3-(3-hydroxy-3-methylbut-1-yn-1-yl)phenyl)ethyl)-2-oxo-1,2-dihydroquinoxalin-6-yl)urea]: more than 1000 nM.
Turning to `CC(C)C1Cc2cc(NC(=O)NC(C)(C)C)ccc2N(Cc2ccccc2)C1=O` (stereo not drawn) [Example 32, 1-(1-benzyl-3-isopropyl-2-oxo-1,2,3,4-tetrahydroquinolin-6-yl)-3-(tert-butyl)urea], the IC50 was more than 1000 nM.
With `C[C@@H](c1cccc(OC(F)(F)F)c1)n1c(=O)cnc2cc(NC(=O)NCC(C)(C)C)ccc21` [Example 201, (S)-1-neopentyl-3-(2-oxo-1-(1-(3-(trifluoromethoxy)phenyl)ethyl)-1,2-dihydroquinoxalin-6-yl)urea] the figure was 100 to 1000 nM.
